Experimental data from patent publication US20100179209A1, “Pactimibe medicaments for preventing/treating a disease due to sebaceous gland dysfunction in humans or animals” (GALDERMA RESEARCH & DEVELOPMENT, priority 2007, published 2010).

Key:
sebaceous glands = experiment: Study of the properties of pactimibe: sebum production by the sebaceous glands
ACAT/SOAT enzyme = experiment: Measurement of ACAT/SOAT activity (NBD-cholesterol fluorescence assay in HepG2 cells); assay type: cell-based; details: NBD-cholesterol 1 μg/ml, incubation 6 h at 37° C., read-out: inhibition of cholesterol ester synthesis, IC50
Description: Measurement of ACAT/SOAT Activity:
The objective of this test is to visualize the activity of the ACAT/SOAT enzyme on the synthesis of cholesterol esters.
The test is based on the following publication: “Identification of ACAT1- and ACAT2-specific inhibitors using a novel, cell based fluorescence assay: individual ACAT uniqueness”, J. Lipid Res., (2004) vol. 45, pages 378-386.
The principle of this test is based on the use of NBD-cholesterol, which is a cholesterol analogue of which the fluorescence is dependent on its environment. When said analogue is in a polar environment, it is weakly fluorescent, whereas in a non-polar environment, it is strongly fluorescent. Free NBD-cholesterol is localized in the cell membranes and is weakly fluorescent in this polar environment. When NBD-cholesterol is esterified by ACAT, the NBD-cholesterol ester is localized in non-polar lipid droplets and is therefore strongly fluorescent.
HepG2 cells are incubated in the presence of NBD-cholesterol (1 μg/ml) and of the test product in transparent-bottomed black 96-well plates at a rate of 30 000 cells per well. […] After the addition of 50 μl of lysis buffer (10 mM NaPO4, 1% Igepal), the plates are shaken for 5 min and read by fluorescence (excitation 490 nm, emission 540 nm) on the Fusion instrument (Perkin Elmer).

[1] = Study of the properties of pactimibe: toxicity
sebum production = details: administration of isotretinoin, current treatment; cited from earlier work

IC50 (ACAT/SOAT enzyme) [nM] | Compound | sebum production by the sebaceous glands (sebaceous glands) | toxicity [1] | decrease of sebum production (sebum production) [%] | side effects (sebum production)
50 | CCCCCCCCN1CCc2c(C)c(CC(=O)O)c(C)c(NC(=O)C(C)(C)C)c21 [pactimibe, N-(1-octyl-5-carboxymethyl-4,6-dimethylindolin-7-yl)-2,2-dimethylpropanamide] | reduce sebum production | not toxic | – | –
– | CC1=C(/C=C/C(C)=C/C=C/C(C)=C\C(=O)O)C(C)(C)CCC1 [isotretinoin] | – | – | ~90 | considerable side effects
